Key:
[1] = test system: lens epithelial cells from bovine anterior capsules; assay: Outgrowth of lens epithelial cells from bovine anterior capsules on treated slides; type: cell-based
Procedure: The tension ring is then further treated with glutaraldehyde (GA), rinsed of excess GA, and then treated with an MTX-protein conjugate. […] Control tension rings are treated with unconjugated protein (no MTX).
Outgrowth was followed for six days.

[2] = test system: epithelial cells of the lens capsule; conditions: solution instilled into the anterior chamber after lens removal; cited from earlier work
rabbit LECs = conditions: mechanism unknown; cited from earlier work
[3] = treated slides, outgrowth followed for six days, first evaluation

## covalent conjugate of MTX: covalent conjugate of MTX with bovine serum albumin prepared using ECDI, attached via glutaraldehyde to the ethylenediamine plasma-treated surface
[1]; slides rinsed and evaluated again, second set of lens capsules
  outgrowth of lens epithelial cells: inhibited outgrowth
[1]; third set of cells on re-used slides
  outgrowth of lens epithelial cells: somewhat inhibited, but not completely
[1]; [3]
  outgrowth of lens epithelial cells: inhibited cell outgrowth

## CN(Cc1cnc2nc(N)nc(N)c2n1)c1ccc(C(=O)N[C@@H](CCC(=O)O)C(=O)O)cc1 [MTX (alone), methotrexate]
[1]; subsequent evaluations after the first evaluation period
  outgrowth of lens epithelial cells: not during subsequent evaluations
[1]; [3]
  outgrowth of lens epithelial cells: inhibited outgrowth
[2]
  destroying epithelial cells of the lens capsule which remain after cataract surgery: effective

## bovine serum albumin [protein (alone)]
[1]; [3]
  outgrowth of lens epithelial cells: allowed good outgrowth

## O=C(O[C@@H]1Cc2c(O)cc(O)cc2O[C@@H]1c1cc(O)c(O)c(O)c1)c1cc(O)c(O)c(O)c1 [(−)-epigallocatechin-3-gallate (EGCG), (−)-epigallocatechin-3-gallate]
Rabbit LECs
  inhibition of proliferation of rabbit LECs: inhibit the proliferation

Reference: patent US20110082543A1, “Methods and Devices for Preventing or Delaying Posterior Capsule Opacification” (CLEO COSMETIC AND PHARMACEUTICAL COMPANY, LLC, priority 2009, published 2011)
